Measured values: US5037830A, “Novel thiouracyl derivatives, pharmaceutical compositions containing them and process for preparing same” (Richter Gedeon Vegyeszeti Gyar RT, priority 1989, dated 1991)
Where two headings read alike, the source gives them in different places.

Key:
[1] = tested on: pentagastrin-induced gastric acid secretion; assay: Inhibition of the pentagastrin-induced gastric acid secretion in rats; type: in vivo, male OFA rats; settings: for Gastric acid, change / Gastric juice, change: vs control; for Gastric juice, treated: pentagastrin 0.05 mg/kg/hour; for ED50: Rattus norvegicus, ip, pentagastrin-induced, dose column i.p.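 As to Gastric acid, treated: dosed 30 min before a 5 hour experiment.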
Procedure: (§1) After being starved for 24 hours, male OFA rats weighing 250 to 320 g were anaestethized by 40% urethane (0.5 ml/100 g), then the trachea and jugular vein were cannulated (10 animals were used for each dose). A glass cannula was inserted to the stomach from the direction of the pylorus. The stomach was washed with lukewarm water and then purified by air blown through. The gastric acid secretion was induced by an infusion of histamine (5 mg/kg/hour), or pentagastrin (0.05 mg/kg/hour) or carbachol (0.01 mg/kg/hour), respectively. […]

[2] = tested on: histamine-induced gastric acid secretion; assay: Inhibition of the histamine-induced gastric acid secretion in rats; type: in vivo, male OFA rats; settings: for Gastric acid, change / Gastric juice, change: vs control; for Gastric juice, treated: histamine 5 mg/kg/hour; for ED50: Rattus norvegicus, ip, histamine-induced, dose column i.p.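 As to Gastric acid, treated: dosed 30 min before a 5 hour experiment.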
Procedure: as §1

[3] = tested on: gastric ulcer induced by Aspirin plus stress; assay: Inhibition of the gastric ulcer induced by Aspirin plus stress; type: in vivo, female RG-Wistar rats; settings: for ED50: Rattus norvegicus, po, Aspirin plus stress
Procedure: After being starved for 24 hours, female RG-Wistar rats weighing 120 to 150 g were orally treated with the compound to be tested and then orally with Aspirin. The animals were sensitized by the aspirin pretreatment and a strong ulceration was induced in the glandular part of stomach of the animals by a subsequent stress (fastening, ducking in water of 22° C. temperature). The ulceration was evaluated as score values from 0 to 2.

Acute toxicity, mouse = settings: in vivo
Procedure: (§2) These investigations were carried out in OFI mice and OFA rats after starving for 24 hours. Ten animals were used for each dose. The number of doses was 3 or 4.

[4] = tested on: indomethacin-induced gastric ulcer; assay: Inhibition of the indomethacin-induced gastric ulcer; type: in vivo, female RG-Wistar rats; settings: for ED50: Rattus norvegicus, po, indomethacin 20 mg/kg orally
Procedure: After being starved for 24 hours, female RG-Wistar rats were orally treated with the compounds to be tested and then orally with 20 mg/kg of indomethacin after 30 minutes. The evaluation was carried out in relation to the control group and the ED50 values were determined.

[5] = tested on: carbachol-induced gastric acid secretion; assay: Inhibition of the carbachol-induced gastric acid secretion in rats; type: in vivo, male OFA rats; settings: for Gastric acid, change / Gastric juice, change: vs control; for Gastric juice, treated: carbachol 0.01 mg/kg/hour; for ED50: Rattus norvegicus, ip, carbachol-induced, dose column i.p.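 As to Gastric acid, treated: dosed 30 min before a 5 hour experiment.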
Procedure: as §1

Acute toxicity, rat = settings: in vivo
Procedure: as §2

[6] = tested on: necrosis induced by ethanol containing hydrochloric acid; assay: Cytoprotective effect (modified Robert's test); type: in vivo; settings: for Bleedings, change: vs control; for ED50: po, cytoprotection
Procedure: The modified Robert's test [Gastroenterology 17, 761 (1979)] was used. The necrotizing agent (100 ml of abs. ethanol containing 2 ml of concentrated hydrochloric acid) was orally administered in a volume of 0.5 ml/100 g by 30 minutes after giving the compound to be tested. (12 animals were used for each dose.) After 1 hour the animals were killed by ether and the bleedings on the glandular part of their stomach were evaluated.

[7] = tested on: gastric ulcer after pylorus ligature; assay: Gastric ulcer-inhibiting effect in rats operated according to Shay's method; type: in vivo, female OFA rats; settings: for ED50: Rattus norvegicus, po, 18 h, p.o.
Procedure: Female OFA rats starved for 24 hours weighing 150 to 160 g were used. (The animals were allowed to drink water ad libitum). The animals were orally treated with the substance to be tested and after 1 hour laparotomy and pylorus ligature according to Shay [Gastroenterology 5, 43 (1945)] were performed under ether anaesthesia. After 18 hours the number and size of ulcers formed on the membranaceous part of the stomach were examined under microscope. The evaluation was made in relation to the control group and the ED50 values were determined. The sizes of the ulcers were expressed as score values from 0.5 to 32.

[8] = tested on: reserpine-induced gastric ulcer; assay: Inhibition of the reserpine-induced gastric ulcer; type: in vivo, female OFA rats; settings: for ED50: Rattus norvegicus, po, 18 h, p.o., reserpine 5 mg/kg s.c.
Procedure: After being starved for 24 hours, female OFA rats were orally treated with the compounds to be tested and then subcutaneously (s.c.) with 5 mg/kg of reserpine after 1 hour. After 18 hours the animals were killed and their stomach were examined under microscope. The evaluation was performed as described under the preceding paragraph 1.

[9] = tested on: acetic acid-induced chronic ulcer; assay: Recovery-influencing effect on the acetic acid-induced chronic ulcer; type: in vivo, female RG-Wistar rats; settings: for increase in the recovery: 15 mg/kg oral dose, daily twice for 15 days
Procedure: After anaesthesia by ether and laparotomy, 50 μl of 20% acetic acid were injected into the stomach wall of female RG-Wistar rats. After 5 days the animals were orally treated with the compounds to be tested daily twice for 15 days. On the 16th day the animals were killed by ether and the size of the ulcers appearing on the stomach was measured. The grade of recovery was defined in relation to the control group.

[10] = po, female mouse, precision restricted by solubility
[11] = po, male mouse, precision restricted by solubility
[12] = po, female rat, precision restricted by solubility
[13] = po, male rat, precision restricted by solubility
[14] = read-out: ED50 related to the number of ulcers
[15] = read-out: ED50 related to the occurrance of ulcers
[16] = read-out: ED50 related to the severity of ulcers

Cc1cc(=O)[nH]c(SCc2ccccc2N(C)C)n1 [Example 1, 2-(2-dimethylaminobenzyl)thio-6-methyl-4(3H)-pyrimidinone]
Gastric acid, treated ([1]; 6.25 mg/kg i.p.): 1.79 mL
Gastric acid, change ([1]; 6.25 mg/kg i.p.): -34%
Gastric juice, change ([1]; 6.25 mg/kg i.p.): -31%
Gastric juice, treated ([1]; 6.25 mg/kg i.p.): 1.26 mL
Gastric acid, treated ([1]; 12.5 mg/kg i.p.): 1.21 mL
Gastric acid, change ([1]; 12.5 mg/kg i.p.): -55%
Gastric juice, change ([1]; 12.5 mg/kg i.p.): -51%
Gastric juice, treated ([1]; 12.5 mg/kg i.p.): 0.90 mL
Gastric acid, treated ([1]; 25 mg/kg i.p.): 0.51 mL
Gastric acid, change ([1]; 25 mg/kg i.p.): -81%
Gastric juice, change ([1]; 25 mg/kg i.p.): -78%
Gastric juice, treated ([1]; 25 mg/kg i.p.): 0.41 mL
ED50 [1]: 9.5 mg/kg
Gastric acid, treated ([2]; 6.25 mg/kg i.p.): 3.41 mL
Gastric acid, change ([2]; 6.25 mg/kg i.p.): -42%
Gastric juice, change ([2]; 6.25 mg/kg i.p.): -44%
Gastric juice, treated ([2]; 6.25 mg/kg i.p.): 2.14 mL
Gastric acid, treated ([2]; 12.5 mg/kg i.p.): 1.90 mL
Gastric acid, change ([2]; 12.5 mg/kg i.p.): -68%
Gastric juice, change ([2]; 12.5 mg/kg i.p.): -64%
Gastric juice, treated ([2]; 12.5 mg/kg i.p.): 1.38 mL
Gastric acid, treated ([2]; 25 mg/kg i.p.): 0.66 mL
Gastric acid, change ([2]; 25 mg/kg i.p.): -89%
Gastric juice, change ([2]; 25 mg/kg i.p.): -87%
Gastric juice, treated ([2]; 25 mg/kg i.p.): 0.49 mL
ED50 [2]: 6.8 mg/kg
ED50 [3]: 7.3 mg/kg
ulcer inhibition, in words ([3]; compared with reference drugs): significantly stronger inhibited
LD50 (Acute toxicity, mouse; ip, female mouse): 365 mg/kg
LD50 (Acute toxicity, mouse; ip, male mouse): 360 mg/kg
LD50 (Acute toxicity, mouse; [10]): > 1000 mg/kg
LD50 (Acute toxicity, mouse; [11]): > 1000 mg/kg
ED50 [4]: 8.2 mg/kg
ulcer inhibition, in words ([4]; compared with reference drugs): significantly stronger inhibited
Gastric acid, treated ([5]; 12.5 mg/kg i.p.): 2.14 mL
Gastric acid, change ([5]; 12.5 mg/kg i.p.): -22%
Gastric juice, change ([5]; 12.5 mg/kg i.p.): -20%
Gastric juice, treated ([5]; 12.5 mg/kg i.p.): 1.65 mL
Gastric acid, treated ([5]; 20 mg/kg i.p.): 0.90 mL
Gastric acid, change ([5]; 20 mg/kg i.p.): -67%
Gastric juice, change ([5]; 20 mg/kg i.p.): -66%
Gastric juice, treated ([5]; 20 mg/kg i.p.): 0.71 mL
Gastric acid, treated ([5]; 25 mg/kg i.p.): 0.37 mL
Gastric acid, change ([5]; 25 mg/kg i.p.): -87%
Gastric juice, change ([5]; 25 mg/kg i.p.): -83%
Gastric juice, treated ([5]; 25 mg/kg i.p.): 0.34 mL
ED50 [5]: 16.5 mg/kg
LD50 (Acute toxicity, rat; ip, female rat): 430 mg/kg
LD50 (Acute toxicity, rat; ip, male rat): 450 mg/kg
LD50 (Acute toxicity, rat; [12]): 2400 mg/kg
LD50 (Acute toxicity, rat; [13]): > 3000 mg/kg
Bleedings, treated ([6]; 10 mg/kg p.o.): 62.0 mm
Bleedings, change ([6]; 10 mg/kg p.o.): -38.7%
Bleedings, treated ([6]; 20 mg/kg p.o.): 42.1 mm
Bleedings, change ([6]; 20 mg/kg p.o.): -56.9%
Bleedings, treated ([6]; 40 mg/kg p.o.): 10.9 mm
Bleedings, change ([6]; 40 mg/kg p.o.): -89.6%
ED50 [6]: 14.5 mg/kg
ED50 [7, 14]: 3.3 mg/kg
ED50 [7, 15]: 9 mg/kg
ED50 [7, 16]: 3.7 mg/kg
ulcer inhibition, in words ([7]; compared with reference drugs): significantly stronger inhibited
ED50 [8, 14]: 16 mg/kg
ED50 [8, 15]: 18 mg/kg
ED50 [8, 16]: 15 mg/kg
ulcer inhibition, in words ([8]; compared with reference drugs): significantly stronger inhibited
increase in the recovery [9]: 45%
recovery from developed gastric ulcers, in words ([9]; compared with reference drug): better results were achieved in the recovery from developed gastric ulcers

CN(C)c1ccccc1C[S+]([O-])c1nc2ccccc2[nH]1 (centres unmarked) [NC-1300, 2-[(2-dimethylaminobenzyl)sulfinyl]-1H-benzimidazole, reference compound]
Gastric acid, treated ([1]; 5 mg/kg i.p.): 1.25 mL
Gastric acid, change ([1]; 5 mg/kg i.p.): -23%
Gastric juice, change ([1]; 5 mg/kg i.p.): -26%
Gastric juice, treated ([1]; 5 mg/kg i.p.): 0.92 mL
Gastric acid, treated ([1]; 10 mg/kg i.p.): 0.47 mL
Gastric acid, change ([1]; 10 mg/kg i.p.): -74%
Gastric juice, change ([1]; 10 mg/kg i.p.): -70%
Gastric juice, treated ([1]; 10 mg/kg i.p.): 0.35 mL
Gastric acid, treated ([1]; 20 mg/kg i.p.): 0.32 mL
Gastric acid, change ([1]; 20 mg/kg i.p.): -82%
Gastric juice, change ([1]; 20 mg/kg i.p.): -77%
Gastric juice, treated ([1]; 20 mg/kg i.p.): 0.27 mL
ED50 [1]: 7.9 mg/kg
Gastric acid, treated ([2]; 5 mg/kg i.p.): 1.97 mL
Gastric acid, change ([2]; 5 mg/kg i.p.): -43%
Gastric juice, change ([2]; 5 mg/kg i.p.): -45%
Gastric juice, treated ([2]; 5 mg/kg i.p.): 1.27 mL
Gastric acid, treated ([2]; 10 mg/kg i.p.): 0.78 mL
Gastric acid, change ([2]; 10 mg/kg i.p.): -77%
Gastric juice, change ([2]; 10 mg/kg i.p.): -79%
Gastric juice, treated ([2]; 10 mg/kg i.p.): 0.49 mL
Gastric acid, treated ([2]; 20 mg/kg i.p.): 0.61 mL
Gastric acid, change ([2]; 20 mg/kg i.p.): -82%
Gastric juice, change ([2]; 20 mg/kg i.p.): -78%
Gastric juice, treated ([2]; 20 mg/kg i.p.): 0.50 mL
ED50 [2]: 6 mg/kg
ED50 [3]: 11.9 mg/kg
LD50 (Acute toxicity, mouse; ip, female mouse): 415 mg/kg
LD50 (Acute toxicity, mouse; ip, male mouse): 410 mg/kg
LD50 (Acute toxicity, mouse; [10]): > 1000 mg/kg
LD50 (Acute toxicity, mouse; [11]): > 1000 mg/kg
ED50 [4]: 8.4 mg/kg
Gastric acid, treated ([5]; 6.25 mg/kg i.p.): 1.89 mL
Gastric acid, change ([5]; 6.25 mg/kg i.p.): -31%
Gastric juice, change ([5]; 6.25 mg/kg i.p.): -25%
Gastric juice, treated ([5]; 6.25 mg/kg i.p.): 1.55 mL
Gastric acid, treated ([5]; 9 mg/kg i.p.): 1.86 mL
Gastric acid, change ([5]; 9 mg/kg i.p.): -32%
Gastric juice, change ([5]; 9 mg/kg i.p.): -24%
Gastric juice, treated ([5]; 9 mg/kg i.p.): 1.57 mL
Gastric acid, treated ([5]; 12.5 mg/kg i.p.): 0.72 mL
Gastric acid, change ([5]; 12.5 mg/kg i.p.): -74%
Gastric juice, change ([5]; 12.5 mg/kg i.p.): -58%
Gastric juice, treated ([5]; 12.5 mg/kg i.p.): 0.87 mL
ED50 [5]: 9.6 mg/kg
LD50 (Acute toxicity, rat; ip, female rat): 245 mg/kg
LD50 (Acute toxicity, rat; ip, male rat): 270 mg/kg
LD50 (Acute toxicity, rat; [12]): 1400 mg/kg
LD50 (Acute toxicity, rat; [13]): 1300 mg/kg
Bleedings, treated ([6]; 5 mg/kg p.o.): 84.4 mm
Bleedings, change ([6]; 5 mg/kg p.o.): -21.7%
Bleedings, treated ([6]; 10 mg/kg p.o.): 42.25 mm
Bleedings, change ([6]; 10 mg/kg p.o.): -60.8%
Bleedings, treated ([6]; 20 mg/kg p.o.): 11.65 mm
Bleedings, change ([6]; 20 mg/kg p.o.): -86.0%
ED50 [6]: 8.6 mg/kg
ED50 [7, 14]: 7.4 mg/kg
ED50 [7, 15]: 14.5 mg/kg
ED50 [7, 16]: 5.7 mg/kg
ED50 [8, 14]: 8 mg/kg
ED50 [8, 15]: 18 mg/kg
ED50 [8, 16]: 6 mg/kg
increase in the recovery [9]: 37%
